Results published in patent publication US20260256792A1, “TREATMENT OF CHRONIC SPONTANEOUS URTICARIA BY ADMINISTERING (R)-2-[3-[4-AMINO-3-(2-FLUORO-4-PHENOXY-PHENYL)PYRAZOLO[3,4-D]PYRIMIDIN-1-YL]PIPERIDINE-1-CARBONYL]-4-METHYL-4-[4-(OXETAN-3-YL)PIPERAZIN-1-YL]PENT-2-ENENITRILE” (priority 2023, published 2026).

Test system: moderate-to-severe chronic spontaneous urticaria (CSU)
Assay: Phase 2 CSU study: urticaria activity score over 7 days (UAS7)
Format: in vivo, human
Conditions: Omalizumab-Naïve
Source text: The study comprises a 12 week, randomized, double-blind, placebo-controlled, multi-center, dose-ranging efficacy and safety phase, followed by a 40 week open label extension (OLE) phase (see FIG. 1). The study consists of three phases and an optional OLE phase. […] Clinically, CSU is characterized by the spontaneous and recurrent appearance of pruritic hives. The proposed primary endpoints were the UAS7 at Week 12 in EU and EU reference countries and the ISS7 in the US. Regardless of where a participant was from, all assessments were the same. The UAS7 score is a composite score containing both the HSS7 and the ISS7. This allowed a global assessment of the two key components of urticaria: hives and itch. […] The UAS is a validated PRO measure. […] The daily UAS scores range from 0 to 6 point/day. […] Patients were to complete the UAS using the e-diary. […] The following secondary endpoints were to be analyzed using the same approach as for the primary endpoint: • Change from baseline in UAS7 at Week 4 • Change from baseline in UAS7 at Week 12 (for US and US reference countries) • Change from baseline in ISS7 at Week 12 (except US and US reference countries) • Change from baseline in HSS7 at Week 12 The following responder secondary endpoints were to be analyzed using the Cochran-Mantel-Haenszel test adjusted by region: • Proportion of participants with UAS7<6 at Week 12 • Proportion of participants with UAS7=0 at Week 12 Participants who received selected prohibited medications and/or rescue medications were to be considered as non-responders for time points after the medication usage. For other participants, all available data including those collected during the off-treatment period were to be used to determine the responder/non-responder status. Missing data were to be considered as non-responders.

[1] = Baseline Eosinophils (10^9/L) ≥0.3, 400 mg BID
[2] = Baseline Eosinophils (10^9/L) ≥0.3, 400 mg QPM
[3] = Baseline Eosinophils (10^9/L) ≥0.3, 400 mg TID
[4] = Baseline H1-antihistamines dose 1-fold, 400 mg BID
[5] = Baseline H1-antihistamines dose 1-fold, 400 mg QPM
[6] = Baseline H1-antihistamines dose 1-fold, 400 mg TID
[7] = Baseline H1-antihistamines dose 2 to 4-fold standard dose, 400 mg BID
[8] = Baseline H1-antihistamines dose 2 to 4-fold standard dose, 400 mg QPM
[9] = Baseline H1-antihistamines dose 2 to 4-fold standard dose, 400 mg TID
[10] = Baseline ISS7 score <13, 400 mg BID
[11] = Baseline ISS7 score <13, 400 mg QPM
[12] = Baseline ISS7 score <13, 400 mg TID
[13] = Baseline ISS7 score ≥13, 400 mg BID
[14] = Baseline ISS7 score ≥13, 400 mg QPM
[15] = Baseline ISS7 score ≥13, 400 mg TID
[16] = Baseline Total IgE (IU/mL) <100, 400 mg BID
[17] = Baseline Total IgE (IU/mL) <100, 400 mg QPM
[18] = Baseline Total IgE (IU/mL) <100, 400 mg TID
[19] = Baseline Total IgE (IU/mL) <300, 400 mg BID
[20] = Baseline Total IgE (IU/mL) <300, 400 mg QPM
[21] = Baseline Total IgE (IU/mL) <300, 400 mg TID
[22] = Baseline Total IgE (IU/mL) ≥100, 400 mg BID
[23] = Baseline Total IgE (IU/mL) ≥100, 400 mg QPM
[24] = Baseline Total IgE (IU/mL) ≥100, 400 mg TID

CC(C)(C=C(C#N)C(=O)N1CCC[C@@H](n2nc(-c3ccc(Oc4ccccc4)cc3F)c3c(N)ncnc32)C1)N1CCN(C2COC2)CC1 [rilzabrutinib, (R)-2-[3-[4-amino-3-(2-fluoro-4-phenoxy-phenyl)pyrazolo[3,4-d]pyrimidin-1-yl]piperidine-1-carbonyl]-4-methyl-4-[4-(oxetan-3-yl)piperazin-1-yl]pent-2-enenitrile]
Change from Baseline in UAS7 at Week 12: Mean (SD) (Baseline Eosinophils (10^9/L) ≥0.165 (Median), 400 mg TID): −16.50 (9.30) | Change from Baseline in UAS7 at Week 12: LS Mean Diff vs. placebo (95% CI) [1]: −3.40 (−16.66, 9.86) | Change from Baseline in UAS7 at Week 12: Mean (SD) [1]: −13.11 (12.32) | Change from Baseline in UAS7 at Week 12: LS Mean (SE) [2]: −9.66 (4.84) | Change from Baseline in UAS7 at Week 12: LS Mean Diff vs. placebo (95% CI) [2]: −2.00 (−16.22, 12.21) | Change from Baseline in UAS7 at Week 12: Mean (SD) [2]: −9.69 (12.55) | Change from Baseline in UAS7 at Week 12: LS Mean (SE) [3]: −13.16 (4.09) | Change from Baseline in UAS7 at Week 12: LS Mean Diff vs. placebo (95% CI) [3]: −5.51 (−18.58, 7.57) | Change from Baseline in UAS7 at Week 12: Mean (SD) [3]: −14.65 (7.48) | Change from Baseline in UAS7 at Week 12: LS Mean (SE) [4]: −15.75 (3.11) | Change from Baseline in UAS7 at Week 12: LS Mean Diff vs. placebo (95% CI) [4]: −3.48 (−11.69, 4.73) | Change from Baseline in UAS7 at Week 12: Mean (SD) [4]: −18.22 (14.88) | Change from Baseline in UAS7 at Week 12: LS Mean (SE) [5]: −7.64 (2.73) | Change from Baseline in UAS7 at Week 12: LS Mean Diff vs. placebo (95% CI) [5]: 4.64 (−2.96, 12.23) | Change from Baseline in UAS7 at Week 12: Mean (SD) [5]: −8.61 (9.50) | Change from Baseline in UAS7 at Week 12: LS Mean (SE) [6]: −14.92 (2.59) | Change from Baseline in UAS7 at Week 12: LS Mean Diff vs. placebo (95% CI) [6]: −2.65 (−10.05, 4.76) | Change from Baseline in UAS7 at Week 12: LS Mean (SE) [7]: −12.98 (2.55) | Change from Baseline in UAS7 at Week 12: LS Mean Diff vs. placebo (95% CI) [7]: −6.42 (−13.94, 1.10) | Change from Baseline in UAS7 at Week 12: LS Mean (SE) [8]: −10.93 (2.77) | Change from Baseline in UAS7 at Week 12: LS Mean Diff vs. placebo (95% CI) [8]: −4.37 (−12.30, 3.56) | Change from Baseline in UAS7 at Week 12: Mean (SD) [8]: −12.81 (9.00) | Change from Baseline in UAS7 at Week 12: LS Mean (SE) [9]: −20.96 (3.15) | Change from Baseline in UAS7 at Week 12: LS Mean Diff vs. placebo (95% CI) [9]: −14.41 (−22.75, −6.07) | Change from Baseline in UAS7 at Week 12: Mean (SD) [9]: −24.73 (10.10) | Change from Baseline in UAS7 at Week 12: LS Mean (SE) [10]: −9.30 (4.02) | Change from Baseline in UAS7 at Week 12: LS Mean Diff vs. placebo (95% CI) [10]: −4.39 (−14.52, 5.74) | Change from Baseline in UAS7 at Week 12: Mean (SD) [10]: −10.78 (8.33) | Change from Baseline in UAS7 at Week 12: LS Mean (SE) [11]: −3.27 (5.21) | Change from Baseline in UAS7 at Week 12: LS Mean Diff vs. placebo (95% CI) [11]: 1.64 (−10.30, 13.58) | Change from Baseline in UAS7 at Week 12: Mean (SD) [11]: −5.83 (3.06) | Change from Baseline in UAS7 at Week 12: LS Mean (SE) [12]: 9.24 (6.48) | Change from Baseline in UAS7 at Week 12: LS Mean Diff vs. placebo (95% CI) [12]: −4.33 (−18.30, 9.63) | Change from Baseline in UAS7 at Week 12: Mean (SD) [12]: −10.75 (6.01) | Change from Baseline in UAS7 at Week 12: LS Mean (SE) [13]: −15.07 (2.33) | Change from Baseline in UAS7 at Week 12: LS Mean Diff vs. placebo (95% CI) [13]: −4.32 (−10.91, 2.27) | Change from Baseline in UAS7 at Week 12: Mean (SD) [13]: −15.60 (12.97) | Change from Baseline in UAS7 at Week 12: LS Mean Diff vs. placebo (95% CI) [14]: 0.28 (−6.08, 6.64) | Change from Baseline in UAS7 at Week 12: Mean (SD) [14]: −10.91 (9.59) | Change from Baseline in UAS7 at Week 12: LS Mean (SE) [15]: −18.70 (2.15) | Change from Baseline in UAS7 at Week 12: LS Mean Diff vs. placebo (95% CI) [15]: −7.95 (−14.32, −1.57) | Change from Baseline in UAS7 at Week 12: LS Mean (SE) [16]: −15.72 (3.24) | Change from Baseline in UAS7 at Week 12: LS Mean Diff vs. placebo (95% CI) [16]: −8.43 (−17.18, 0.33) | Change from Baseline in UAS7 at Week 12: Mean (SD) [16]: −16.26 (11.38) | Change from Baseline in UAS7 at Week 12: LS Mean (SE) [17]: 8.49 (3.25) | Change from Baseline in UAS7 at Week 12: LS Mean Diff vs. placebo (95% CI) [17]: −1.19 (−10.05, 7.67) | Change from Baseline in UAS7 at Week 12: LS Mean (SE) [18]: −17.40 (3.01) | Change from Baseline in UAS7 at Week 12: LS Mean Diff vs. placebo (95% CI) [18]: −10.10 (−18.54, −1.65) | Change from Baseline in UAS7 at Week 12: Mean (SD) [18]: −21.03 (13.37) | Change from Baseline in UAS7 at Week 12: LS Mean (SE) [19]: −14.78 (2.46) | Change from Baseline in UAS7 at Week 12: LS Mean Diff vs. placebo (95% CI) [19]: −6.72 (−13.41, −0.03) | Change from Baseline in UAS7 at Week 12: Mean (SD) [19]: 15.35 (12.23) | Change from Baseline in UAS7 at Week 12: LS Mean (SE) [20]: −9.07 (2.38) | Change from Baseline in UAS7 at Week 12: LS Mean Diff vs. placebo (95% CI) [20]: −1.01 (−7.60, 5.59) | Change from Baseline in UAS7 at Week 12: Mean (SD) [20]: −10.61 (9.62) | Change from Baseline in UAS7 at Week 12: LS Mean (SE) [21]: −18.19 (2.47) | Change from Baseline in UAS7 at Week 12: LS Mean Diff vs. placebo (95% CI) [21]: −10.13 (−16.83, −3.44) | Change from Baseline in UAS7 at Week 12: Mean (SD) [21]: −20.66 (12.39) | Change from Baseline in UAS7 at Week 12: LS Mean (SE) [22]: −13.17 (2.55) | Change from Baseline in UAS7 at Week 12: LS Mean Diff vs. placebo (95% CI) [22]: −1.67 (−8.84, 5.51) | Change from Baseline in UAS7 at Week 12: Mean (SD) [22]: −13.19 (12.80) | Change from Baseline in UAS7 at Week 12: LS Mean (SE) [23]: −8.97 (2.49) | Change from Baseline in UAS7 at Week 12: LS Mean Diff vs. placebo (95% CI) [23]: 2.53 (−4.52, 9.59) | Change from Baseline in UAS7 at Week 12: Mean (SD) [23]: −9.90 (9.51) | Change from Baseline in UAS7 at Week 12: LS Mean (SE) [24]: −17.08 (2.69) | Change from Baseline in UAS7 at Week 12: LS Mean Diff vs. placebo (95% CI) [24]: −5.57 (−12.83, 1.69)
